Laboratory results from patent US11472815B2, “1,4-diphenyl-1H-imidazole and 2,4-diphenylthiazole derivatives and preparation method therefor and use thereof” (SOUTHERN MEDICAL UNIVERSITY, priority 2018, dated 2022).

What follows are compounds tested against TLR1/2 (Homo sapiens (Human), UniProt O60603+Q15399) (assay: Detection of TLR1/2 activation activity (SEAP signal) using TLR1/2 HEK BLUE cells). Conditions: not given.
Sequence of TLR1/2 (Q15399 25-786): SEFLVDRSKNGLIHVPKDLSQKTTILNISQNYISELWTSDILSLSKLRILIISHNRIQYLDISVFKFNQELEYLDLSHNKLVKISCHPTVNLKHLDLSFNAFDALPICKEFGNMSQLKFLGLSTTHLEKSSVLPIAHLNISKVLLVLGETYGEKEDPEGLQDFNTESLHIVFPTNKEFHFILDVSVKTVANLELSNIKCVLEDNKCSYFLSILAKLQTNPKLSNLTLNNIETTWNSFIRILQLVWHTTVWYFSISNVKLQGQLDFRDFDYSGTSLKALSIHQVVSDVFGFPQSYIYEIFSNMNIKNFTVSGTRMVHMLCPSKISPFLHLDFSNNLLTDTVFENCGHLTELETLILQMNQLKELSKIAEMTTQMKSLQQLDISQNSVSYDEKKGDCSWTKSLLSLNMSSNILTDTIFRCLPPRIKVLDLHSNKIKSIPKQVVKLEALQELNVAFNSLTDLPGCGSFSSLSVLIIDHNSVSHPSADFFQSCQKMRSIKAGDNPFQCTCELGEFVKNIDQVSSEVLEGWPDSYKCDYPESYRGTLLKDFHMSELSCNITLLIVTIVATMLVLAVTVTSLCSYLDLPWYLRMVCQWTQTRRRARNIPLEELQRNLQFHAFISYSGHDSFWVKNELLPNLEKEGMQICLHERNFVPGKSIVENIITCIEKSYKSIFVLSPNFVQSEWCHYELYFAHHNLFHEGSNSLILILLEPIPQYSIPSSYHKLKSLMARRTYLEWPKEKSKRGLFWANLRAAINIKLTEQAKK
Sequence of TLR1/2 (O60603 19-784): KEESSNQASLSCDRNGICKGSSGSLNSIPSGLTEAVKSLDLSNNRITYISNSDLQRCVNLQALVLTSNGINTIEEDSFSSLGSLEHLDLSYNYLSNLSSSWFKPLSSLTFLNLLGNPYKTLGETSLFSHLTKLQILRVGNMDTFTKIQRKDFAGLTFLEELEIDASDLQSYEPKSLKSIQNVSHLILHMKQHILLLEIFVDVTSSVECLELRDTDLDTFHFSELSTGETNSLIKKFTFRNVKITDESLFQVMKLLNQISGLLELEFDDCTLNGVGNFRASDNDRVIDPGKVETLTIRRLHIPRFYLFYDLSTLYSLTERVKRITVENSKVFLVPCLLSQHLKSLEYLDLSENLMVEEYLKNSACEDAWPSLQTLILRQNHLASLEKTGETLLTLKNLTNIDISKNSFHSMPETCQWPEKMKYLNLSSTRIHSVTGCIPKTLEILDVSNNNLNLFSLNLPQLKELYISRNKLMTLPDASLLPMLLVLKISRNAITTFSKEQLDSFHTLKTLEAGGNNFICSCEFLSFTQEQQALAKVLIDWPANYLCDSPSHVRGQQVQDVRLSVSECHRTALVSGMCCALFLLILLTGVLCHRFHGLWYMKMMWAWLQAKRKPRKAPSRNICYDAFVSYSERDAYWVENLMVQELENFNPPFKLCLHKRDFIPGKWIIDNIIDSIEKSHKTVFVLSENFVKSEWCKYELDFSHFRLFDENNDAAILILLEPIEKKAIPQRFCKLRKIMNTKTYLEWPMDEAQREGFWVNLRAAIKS
Format: cell-based
Method: TLR1/2 activation activity was detected using TLR1/2 HEK BLUE cells. TLR1/2 HEK BLUE cells were cultured in DMEM medium containing 10% fetal bovine serum, 1% penicillin and streptomycin, and incubated in a 37° C. cell incubator containing 5% CO2.
HEK BLUE TLR1/2 cells were spread in a 384-well plate at 20,000 cells/well, cultured at 37° C., 5% CO2 for 24 hours, 25 μL per well. When the cells grew well, 100 μM compound and doubling-diluted for 11 concentration gradients. After the cells were kept for 24 hours in the CO2 incubator, 40 μL of indigo blue solution was added to each well of the plate in the dark, and reading was conducted 4 times in an interval of 15 minutes at 620 nm to detect the signal intensity of SEAP in the cell supernatant.
In the case of `CNc1ccc([N+](=O)[O-])cc1-n1cnc(-c2ccc(C(F)(F)F)cc2O)c1` [Compound 22, 2-(1-(2-(methylamino)-5-nitrophenyl)-1H-imidazol-4-yl)-5-(trifluoromethyl)phenol], the “TLR1/2 activation (in words)” value is reported as “activates TLR1/2 activity in a concentration-dependent manner”.

Same assay, conditions: HEK BLUE TLR1/2 cells, 24 hours, SEAP read at 620 nm; highest concentration 100 μM; [‡] highest SEAP signal less than 50% of the activation value of compound 22
Work on `FC(F)(F)c1ccc(-c2csc(-c3ccccc3)n2)cc1` [Compound 3, 2-phenyl-4-(4-(trifluoromethyl)phenyl)thiazole] yielded an EC50 greater than 1 µM.
`FC(F)(F)c1ccc(-c2csc(-c3cccc(C(F)(F)F)c3)n2)cc1` [Compound 4, 2-(3-(trifluoromethyl)phenyl)-4-(4-(trifluoromethyl)phenyl)thiazole] was tested, and the EC50 was greater than 1 µM.
For `FC(F)(F)c1ccc(-c2csc(-c3cc(C(F)(F)F)cc(C(F)(F)F)c3)n2)cc1` [Compound 7, 2-(3,5-bis(trifluoromethyl)phenyl)-4-(4-(trifluoromethyl)phenyl)thiazole], the “TLR1/2 activation activity EC50” value was “NA[†]”.
With `Oc1cc(C(F)(F)F)ccc1-c1csc(-c2ccccc2)n1` [Compound 13, 2-(2-phenylthiazol-4-yl)-5-(trifluoromethyl)phenol] the “TLR1/2 activation activity EC50” value was “NA[†]”.
With `Oc1cc(C(F)(F)F)ccc1-c1csc(-c2cccc(C(F)(F)F)c2)n1` [Compound 14, 5-(trifluoromethyl)-2-(2-(3-(trifluoromethyl)phenyl)thiazol-4-yl)phenol] the “TLR1/2 activation activity EC50” value was “NA[†]”.
`Oc1cc(C(F)(F)F)ccc1-c1csc(-c2cc(C(F)(F)F)cc(C(F)(F)F)c2)n1` [Compound 17, 2-(2-(3,5-bis(trifluoromethyl)phenyl)thiazol-4-yl)-5-(trifluoromethyl)phenol] was tested, and the “TLR1/2 activation activity EC50” value was “NA[†]”.
In the case of `CNc1ccc([N+](=O)[O-])cc1-n1cnc(-c2ccc(OC(F)(F)F)cc2O)c1` [Compound 21, 2-(1-(2-(methylamino)-5-nitrophenyl)-1H-imidazol-4-yl)-5-(trifluoromethoxy)phenol], the EC50 is reported as 0.0249 ± 0.00615 µM.
Compound `CNc1ccc([N+](=O)[O-])cc1-n1cnc(-c2ccc(C(F)(F)F)cc2O)c1` [Compound 22, 2-(1-(2-(methylamino)-5-nitrophenyl)-1H-imidazol-4-yl)-5-(trifluoromethyl)phenol] has an EC50 of 0.00488 ± 0.00079 µM.
In the case of `CNc1ccc(S(C)(=O)=O)cc1-n1cnc(-c2ccc(C(F)(F)F)cc2O)c1` [Compound 23, 2-(1-(2-(methylamino)-5-(methylsulfonyl)phenyl)-1H-imidazol-4-yl)-5-(trifluoromethyl)phenol], the EC50 is reported as 0.00514 ± 7e-05 µM.
`CNc1ccc(C(=O)OC)cc1-n1cnc(-c2ccc(C(F)(F)F)cc2O)c1` [Compound 24, Methyl 3-(4-(2-hydroxy-4-(trifluoromethyl)phenyl)-1H-imidazol-1-yl)-4-(methylamino)benzoate] gave an EC50 of 0.43286 ± 5e-05 µM.
For `CNC(=O)c1ccc(NC)c(-n2cnc(-c3ccc(C(F)(F)F)cc3O)c2)c1` [Compound 25, 3-(4-(2-hydroxy-4-(trifluoromethyl)phenyl)-1H-imidazol-1-yl)-N-methyl-4-(methylamino)benzamide], the EC50 was 0.0456 ± 0.00315 µM.
Compound `CNc1c(Cl)cc([N+](=O)[O-])cc1-n1cnc(-c2ccc(C(F)(F)F)cc2O)c1` [Compound 26, 2-(1-(3-chloro-2-(methylamino)-5-nitrophenyl)-1H-imidazol-4-yl)-5-(trifluoromethyl)phenol] has an EC50 of 0.192 ± 0.0172 µM.
Compound `CNc1c(Cl)cc([N+](=O)[O-])cc1-n1cnc(-c2ccc(C#N)cc2)c1` [Compound 27, 4-(1-(3-chloro-2-(methylamino)-5-nitrophenyl)-1H-imidazol-4-yl)benzonitrile] has an EC50 greater than 1 µM.
Work on `CNc1ccc([N+](=O)[O-])cc1-n1cnc(-c2ccc(C(F)(F)F)cc2OC)c1` [Compound 28, 2-(4-(2-methoxy-4-(trifluoromethyl)phenyl)-1H-imidazol-1-yl)-N-methyl-4-nitroaniline] yielded an EC50 of 0.0923 ± 0.0123 µM.
`CCOc1cc(C(F)(F)F)ccc1-c1cn(-c2cc([N+](=O)[O-])ccc2NC)cn1` [Compound 29, 2-(4-(2-ethoxy-4-(trifluoromethyl)phenyl)-1H-imidazol-1-yl)-N-methyl-4-nitroaniline] gave an EC50 greater than 1 µM.
Compound `CNc1ccc([N+](=O)[O-])cc1-n1cnc(-c2ccc(C(F)(F)F)cc2OCc2ccccc2)c1` [Compound 30, 2-(4-(2-(benzyloxy)-4-(trifluoromethyl)phenyl)-1H-imidazol-1-yl)-N-methyl-4-nitroaniline] has an EC50 greater than 1 µM.
`CNc1ccc([N+](=O)[O-])cc1-n1cnc(-c2ccc(C(F)(F)F)cc2OCCBr)c1` [Compound 31, 2-(4-(2-(2-bromoethoxy)-4-(trifluoromethyl)phenyl)-1H-imidazol-1-yl)-N-methyl-4-nitroaniline] was tested, and the EC50 was greater than 1 µM.
`CNc1ccc([N+](=O)[O-])cc1-n1cnc(-c2ccc(C(F)(F)F)cc2OCCCBr)c1` [Compound 32, 2-(4-(2-(3-bromopropoxy)-4-(trifluoromethyl)phenyl)-1H-imidazol-1-yl)-N-methyl-4-nitroaniline] gave an EC50 greater than 1 µM.
`CNc1ccc([N+](=O)[O-])cc1-n1cnc(-c2ccc(C(F)(F)F)cc2OCCOCCO)c1` [Compound 34, 2-(2-(2-(1-(2-(methylamino)-5-nitrophenyl)-1H-imidazol-4-yl)-5-(trifluoromethyl)phenoxy)ethoxy)ethanol] was tested, and the EC50 was greater than 1 µM.
`CNc1ccc([N+](=O)[O-])cc1-n1cnc(-c2ccc(C(F)(F)F)cc2OC(C)=O)c1` [Compound 35, (1-(2-(methylamino)-5-nitrophenyl)-1H-imidazol-4-yl)-5-(trifluoromethyl)phenyl acetate] was tested, and the EC50 was 0.0188 ± 0.00365 µM.
Work on `CCCCCCCC(=O)Oc1cc(C(F)(F)F)ccc1-c1cn(-c2cc([N+](=O)[O-])ccc2NC)cn1` [Compound 36, 2-(1-(2-(methylamino)-5-nitrophenyl)-1H-imidazol-4-yl)-5-(trifluoromethyl)phenyl octanoate] yielded an EC50 of 0.0563 ± 0.00731 µM.
`CCCCCCCCCCCC(=O)Oc1cc(C(F)(F)F)ccc1-c1cn(-c2cc([N+](=O)[O-])ccc2NC)cn1` [Compound 37, 2-(1-(2-(methylamino)-5-nitrophenyl)-1H-imidazol-4-yl)-5-(trifluoromethyl)phenyl dodecanoate] was tested, and the EC50 was 0.113 ± 0.0127 µM.
With `CNc1ccc([N+](=O)[O-])cc1-n1cnc(-c2ccc(C(F)(F)F)cc2OC(=O)c2ccccc2)c1` [Compound 38, 2-(1-(2-(methylamino)-5-nitrophenyl)-1H-imidazol-4-yl)-5-(trifluoromethyl)phenyl benzoate] the EC50 was 0.0169 ± 0.00279 µM.
Work on `CNc1ccc([N+](=O)[O-])cc1-n1cnc(-c2ccc(C(F)(F)F)cc2OC(=O)/C=C/c2ccccc2)c1` [Compound 39, (1-(2-(methylamino)-5-nitrophenyl)-1H-imidazol-4-yl)-5-(trifluoromethyl)phenyl cinnamate] yielded an EC50 of 0.012 ± 0.00267 µM.
With `CNc1ccc([N+](=O)[O-])cc1-n1cnc(-c2ccc(C(F)(F)F)cc2OCCOCCOCCI)c1` [Compound 41, 2-(4-(2-(2-(2-(2-iodoethoxy)ethoxy)ethoxy)-4-(trifluoromethyl)phenyl)-1H-imidazole-1-yl)-N-methyl-4-nitroaniline] the EC50 was greater than 1 µM.
For `CNc1ccc([N+](=O)[O-])cc1-n1cnc(-c2ccc(C(F)(F)F)cc2OCC(N)=O)c1` [Compound 42, (2-(1-(2-(methylamino)-5-nitrophenyl)-1H-imidazo-4-yl)-5-(trifluoromethyl)phenoxy)acetamide], the EC50 was greater than 1 µM.
With `CNc1ccc([N+](=O)[O-])cc1-n1cnc(-c2ccc(C(F)(F)F)cc2OCCNC(=O)CCCC[C@@H]2SC[C@@H]3NC(=O)N[C@@H]32)c1` [Compound 44, N-(2-(2-(1-(2-(methylamino)-5-nitrophenyl)-1H-imidazol-4-yl)-5-(trifluoromethyl)phenoxyl)ethyl)-5-((3AS,4S,6AR)-2-oxohexahydro-1H-thieno[3,4-d]imidazol-4-yl)pentanamide] the EC50 was 0.764 ± 0.0102 µM.

Same assay, conditions: even at a low concentration (15 nM)
In the case of `CNc1ccc([N+](=O)[O-])cc1-n1cnc(-c2ccc(C(F)(F)F)cc2O)c1` [Compound 22, 2-(1-(2-(methylamino)-5-nitrophenyl)-1H-imidazol-4-yl)-5-(trifluoromethyl)phenol], the “signal intensity of TLR1/2 alkaline phosphatase (SEAP)” value is reported as “significantly activate”.
